Laboratory results published in ChEMBL document CHEMBL3885881, “DrugMatrix”.

Species: Rattus norvegicus
Test: DrugMatrix - Regimen: Daily Repeat
Assay type: toxicity, organism-based, Sprague-Dawley
Set-up: regimen Daily Repeat, gender Male, age 6-8 weeks
Settings: in vivo, po, route oral GAVAGE, vehicle 100 % SALINE; for ABSOLUTE BASOPHIL / ABSOLUTE EOSINOPHIL / ABSOLUTE LYMPHOCYTE / ABSOLUTE MONOCYTE / ABSOLUTE SEGMENTED NEUTROPHIL / BASOPHIL / EOSINOPHIL / ERYTHROCYTE COUNT / HEMATOCRIT / HEMOGLOBIN / LEUKOCYTE COUNT / LYMPHOCYTE / MEAN CORPUSCULAR HEMOGLOBIN / MEAN CORPUSCULAR HEMOGLOBIN CONCENTRATION / MEAN CORPUSCULAR VOLUME / MONOCYTE / NEUTROPHIL / NUCLEATED RED BLOOD CELLS / PLATELET COUNT: tissue Blood; for ALANINE AMINOTRANSFERASE / ALBUMIN / ALKALINE PHOSPHATASE / ASPARTATE AMINOTRANSFERASE / BLOOD UREA NITROGEN / CARBON DIOXIDE / CHLORIDE / CHOLESTEROL / CREATINE PHOSPHOKINASE / CREATININE / GLUCOSE / LACTATE DEHYDROGENASE / LIPASE / PHOSPHORUS / POTASSIUM / SODIUM / TOTAL BILIRUBIN / TOTAL PROTEIN / URIC ACID: tissue Plasma
[1] = 0 mg/kg, 72 h, dose level Control, time 3 day
[2] = 0 mg/kg, 120 h, dose level Control, time 5 day
[3] = 17.5 mg/kg, 72 h, dose level Low, time 3 day
[4] = 17.5 mg/kg, 120 h, dose level Low, time 5 day

## NC(=O)C[S+]([O-])C(c1ccccc1)c1ccccc1 (configuration not stated) [MODAFINIL]
[1]
  ABSOLUTE BASOPHIL: 0 CELLS/uL
  ABSOLUTE EOSINOPHIL: 37 CELLS/uL
  ABSOLUTE LYMPHOCYTE: 12359.33 CELLS/uL
  ABSOLUTE MONOCYTE: 122.67 CELLS/uL
  ABSOLUTE SEGMENTED NEUTROPHIL: 847.67 CELLS/uL
  BASOPHIL: 0%
  EOSINOPHIL: 0.33%
  ERYTHROCYTE COUNT: 5.75 x10E6/uL
  HEMATOCRIT: 36.08%
  HEMOGLOBIN: 14.07 G/DL
  LEUKOCYTE COUNT: 13.37 x10E3/uL
  LYMPHOCYTE: 92.5%
  MEAN CORPUSCULAR HEMOGLOBIN: 24.47 pg
  MEAN CORPUSCULAR HEMOGLOBIN CONCENTRATION: 38.98 G/DL
  MEAN CORPUSCULAR VOLUME: 62.78 fL
  MONOCYTE: 1%
  NEUTROPHIL: 6.17%
  NUCLEATED RED BLOOD CELLS: 0.17 /100WBC
  PLATELET COUNT: 1202.17 x10E3/uL
  ALANINE AMINOTRANSFERASE: 50.67 u/L
  ALBUMIN: 4.13 G/DL
  ALKALINE PHOSPHATASE: 356.33 u/L
  ASPARTATE AMINOTRANSFERASE: 78.17 u/L
  BLOOD UREA NITROGEN: 14.17 mg/dL
  CARBON DIOXIDE: 31.33 mmol/L
  CHLORIDE: 98.5 MEQ/L
  CHOLESTEROL: 76.5 mg/dL
  CREATINE PHOSPHOKINASE: 248.33 u/L
  CREATININE: 0.2 mg/dL
  GLUCOSE: 144 mg/dL
  LACTATE DEHYDROGENASE: 107 u/L
  LIPASE: 9.83 u/L
  PHOSPHORUS: 12.8 mg/dL
  POTASSIUM: 6.75 MEQ/L
  SODIUM: 142 MEQ/L
  TOTAL BILIRUBIN: 0.18 mg/dL
  TOTAL PROTEIN: 5.98 G/DL
  URIC ACID: 1.42 mg/dL
[2]
  ABSOLUTE BASOPHIL: 0 CELLS/uL
  ABSOLUTE EOSINOPHIL: 0 CELLS/uL
  ABSOLUTE LYMPHOCYTE: 8681.17 CELLS/uL
  ABSOLUTE MONOCYTE: 79.83 CELLS/uL
  ABSOLUTE SEGMENTED NEUTROPHIL: 689 CELLS/uL
  BASOPHIL: 0%
  EOSINOPHIL: 0%
  ERYTHROCYTE COUNT: 5.49 x10E6/uL
  HEMATOCRIT: 33.55%
  HEMOGLOBIN: 13.1 G/DL
  LEUKOCYTE COUNT: 9.45 x10E3/uL
  LYMPHOCYTE: 92.33%
  MEAN CORPUSCULAR HEMOGLOBIN: 23.92 pg
  MEAN CORPUSCULAR HEMOGLOBIN CONCENTRATION: 39.07 G/DL
  MEAN CORPUSCULAR VOLUME: 61.22 fL
  MONOCYTE: 0.67%
  NEUTROPHIL: 7%
  NUCLEATED RED BLOOD CELLS: 0.17 /100WBC
  PLATELET COUNT: 1001.17 x10E3/uL
  ALANINE AMINOTRANSFERASE: 49.33 u/L
  ALBUMIN: 4.07 G/DL
  ALKALINE PHOSPHATASE: 300.33 u/L
  ASPARTATE AMINOTRANSFERASE: 83.5 u/L
  BLOOD UREA NITROGEN: 16 mg/dL
  CARBON DIOXIDE: 29.67 mmol/L
  CHLORIDE: 100.5 MEQ/L
  CHOLESTEROL: 74.33 mg/dL
  CREATINE PHOSPHOKINASE: 489.67 u/L
  CREATININE: 0.35 mg/dL
  GLUCOSE: 151 mg/dL
  LACTATE DEHYDROGENASE: 133.67 u/L
  LIPASE: 11.17 u/L
  PHOSPHORUS: 10.88 mg/dL
  POTASSIUM: 5.5 MEQ/L
  SODIUM: 145.7 MEQ/L
  TOTAL BILIRUBIN: 0.2 mg/dL
  TOTAL PROTEIN: 6.05 G/DL
  URIC ACID: 0.68 mg/dL
[3]
  ABSOLUTE BASOPHIL: 0 CELLS/uL
  ABSOLUTE EOSINOPHIL: 0 CELLS/uL
  ABSOLUTE LYMPHOCYTE: 8269.33 CELLS/uL
  ABSOLUTE MONOCYTE: 22 CELLS/uL
  ABSOLUTE SEGMENTED NEUTROPHIL: 608.67 CELLS/uL
  BASOPHIL: 0%
  EOSINOPHIL: 0%
  ERYTHROCYTE COUNT: 5.35 x10E6/uL
  HEMATOCRIT: 32.93%
  HEMOGLOBIN: 12.87 G/DL
  LEUKOCYTE COUNT: 8.9 x10E3/uL
  LYMPHOCYTE: 93%
  MEAN CORPUSCULAR HEMOGLOBIN: 24.07 pg
  MEAN CORPUSCULAR HEMOGLOBIN CONCENTRATION: 39.03 G/DL
  MEAN CORPUSCULAR VOLUME: 61.67 fL
  MONOCYTE: 0.33%
  NEUTROPHIL: 6.67%
  NUCLEATED RED BLOOD CELLS: 0 /100WBC
  PLATELET COUNT: 1018.67 x10E3/uL
  ALANINE AMINOTRANSFERASE: 51.33 u/L
  ALBUMIN: 4.2 G/DL
  ALKALINE PHOSPHATASE: 290.33 u/L
  ASPARTATE AMINOTRANSFERASE: 79.67 u/L
  BLOOD UREA NITROGEN: 14 mg/dL
  CARBON DIOXIDE: 27.67 mmol/L
  CHLORIDE: 100.33 MEQ/L
  CHOLESTEROL: 66 mg/dL
  CREATINE PHOSPHOKINASE: 304.67 u/L
  CREATININE: 0.22 mg/dL
  GLUCOSE: 157.67 mg/dL
  LACTATE DEHYDROGENASE: 92.67 u/L
  LIPASE: 11 u/L
  PHOSPHORUS: 11.77 mg/dL
  POTASSIUM: 5.21 MEQ/L
  SODIUM: 144.33 MEQ/L
  TOTAL BILIRUBIN: 0.17 mg/dL
  TOTAL PROTEIN: 5.93 G/DL
  URIC ACID: 0.7 mg/dL
[4]
  ABSOLUTE BASOPHIL: 0 CELLS/uL
  ABSOLUTE EOSINOPHIL: 0 CELLS/uL
  ABSOLUTE LYMPHOCYTE: 7020.33 CELLS/uL
  ABSOLUTE MONOCYTE: 0 CELLS/uL
  ABSOLUTE SEGMENTED NEUTROPHIL: 813 CELLS/uL
  BASOPHIL: 0%
  EOSINOPHIL: 0%
  ERYTHROCYTE COUNT: 5.19 x10E6/uL
  HEMATOCRIT: 32.03%
  HEMOGLOBIN: 12.9 G/DL
  LEUKOCYTE COUNT: 7.83 x10E3/uL
  LYMPHOCYTE: 90%
  MEAN CORPUSCULAR HEMOGLOBIN: 24.93 pg
  MEAN CORPUSCULAR HEMOGLOBIN CONCENTRATION: 40.27 G/DL
  MEAN CORPUSCULAR VOLUME: 61.83 fL
  MONOCYTE: 0%
  NEUTROPHIL: 10%
  NUCLEATED RED BLOOD CELLS: 0 /100WBC
  PLATELET COUNT: 1105.67 x10E3/uL
  ALANINE AMINOTRANSFERASE: 54.33 u/L
  ALBUMIN: 4.27 G/DL
  ALKALINE PHOSPHATASE: 413 u/L
  ASPARTATE AMINOTRANSFERASE: 84 u/L
  BLOOD UREA NITROGEN: 11 mg/dL
  CARBON DIOXIDE: 33.67 mmol/L
  CHLORIDE: 98.33 MEQ/L
  CHOLESTEROL: 73 mg/dL
  CREATINE PHOSPHOKINASE: 441.67 u/L
  CREATININE: 0.39 mg/dL
  GLUCOSE: 133 mg/dL
  LACTATE DEHYDROGENASE: 119.33 u/L
  LIPASE: 10.67 u/L
  PHOSPHORUS: 10.57 mg/dL
  POTASSIUM: 6.11 MEQ/L
  SODIUM: 143.73 MEQ/L
  TOTAL BILIRUBIN: 0.13 mg/dL
  TOTAL PROTEIN: 6.13 G/DL
  URIC ACID: 0.7 mg/dL
